How the values were obtained:
[1] = system: activated T cells (CD4+ T cells from mouse spleen); experiment: 3H-thymidine uptake in activated T cells; type: cell-based, mouse (C57BL/6J); conditions: T-cell; mouse spleen CD4+ T cells activated with Dynabeads Mouse T-Activator CD3/CD28; read-out: IC50 (3H-thymidine uptake, proliferation of activated T cells)
Experimental: Effect of Test Substance on ^3H-Thymidine Uptake in Activated T Cells
The effect of test substance on ^3H-thymidine uptake by activation was evaluated using T cells from mouse spleen. The spleen was removed from euthanized C57BL/6J mice, and finely sliced, then triturated on a cell strainer (40 μm mesh), and cells were collected by centrifugation. The collected splenocytes were treated with Cold lyser containing 0.17 M NH4Cl for 5 minutes to hemolytically remove red blood cells and then washed. The resulting cells were used as the splenocytes. From the splenocytes, CD4+ T cells were isolated using an EasySep Mouse CD4+ T cell isolation kit (STEMCELL Technologies Inc.). The CD4+ T cells were seeded into 96-well round-bottom plates. To the plates, test substance or Vehicle was added, and Dynabeads Mouse T-Activator CD3/CD28 (Thermo Fisher Scientific Inc.) was added, then the cells were cultured at 37° C. under 5% CO2. After 24 hours of culture, ^3H-Thymidine (PerkinElmer Inc.) diluted with medium was added to each well, then the cells were further cultured at 37° C. under 5% CO2 overnight. To measure ^3H-Thymidine uptake into the nuclei of the cells, the cells were collected into filter plates UniFilter-96 GF/B (PerkinElmer Inc.) using a FilterMate Universal Harvester (PerkinElmer Inc.). The filter plates were placed in a dryer and left still for 2 hours or more. Then, scintillation cocktail MicroScint-O (PerkinElmer Inc.) was added to the plates, and radioactivity was measured with TopCount NXT (PerkinElmer Inc.). With the radioactivity of the test substance-free group set as 100% and the radioactivity of the non-activation group as 0%, the relative value (proliferation rate, % of vehicle) of the radioactivity of each well to which test substance was added was calculated. The value of % of vehicle was incorporated into analysis software Prism (Version 5.0, GraphPad Software), the “Nonlinear Regression Log (inhibitor) vs Reaction Variable Inclination” was selected, and then sigmoid fitting with restrictions of Bottom=0 and Top=100 was performed to calculate 50% inhibitory concentration (IC50).

mouse chronic GVH model = experiment: Kidney disorder in mouse chronic GVH model, urine protein/creatinine ratio; type: in vivo, mouse (BDF1 host, DBA2 donor); conditions: for minimum effective dose / effective dose, urine protein/creatinine ratio: oral, twice daily from Day 4, urine on Day 32, p-value of 0.05 or less relative to the Vehicle group
Experimental: FIG. 3 is a box plot graph showing the effect of the compound of Example 89 on renal disorder in mouse chronic GVH models. The compound of Example 89 was orally administered at 1.5, 5, 15, or 50 mg/kg, BID, and MMF was orally administered at 30 mg/kg, BID. […] The boxes in the graph represent box plots of the median and the quartile range for each group at N=12. The plots show the values of each individual. Both between the non-elicitation group (Normal group) and the Vehicle group, and between the Vehicle group and the MMF group were compared by the Wilcoxon test (non-parametric, two-group comparison). # means that the p-value is 0.05 or less, and $$ means that the p-value is 0.01 or less, respectively. The Vehicle group and the compound group of Example 89 were analyzed by the Shirley-Williams test (non-parametric, multiple comparisons with dose response). The groups in which the p-value is 0.01 or less and 0.001 or less are shown by ** and ***, respectively.
Effect of Test Substance on Kidney Disorder in Mouse Chronic GVH Model
A mouse chronic graft-versus-host (GVH) model was generated in accordance with a previous report (Via CS. Advances in lupus stemming from the parent-into-F1 model. Trends Immunol. 31, 236-45 (2010)). Splenocytes were prepared from euthanized donor mice (DBA2 mice), suspended in PBS without hemolysis of erythrocytes, and administered to host mice, BDF1 mice, from tail veins (1×10^8 cells/0.2 mL/mouse) at Day 0 and Day 4, twice. In the Normal group, 0.2 mL of PBS was administered in place of the cells. The test substance was crushed in an agate mortar, and then suspended in a 0.5% hydroxypropyl cellulose (HPC) solution to prepare a dosage solution. In the Vehicle group, 0.5% HPC was used as a dosage solution. To the host mice, the dosage solution was forcibly orally administered (0.2 mL/mouse) twice daily with a feeding needle from Day 4 (second cell transfer) to the end of the experiment. Urine was collected on Day 32 under free diet with a metabolic cage. Urine protein concentration was measured with a urine protein test kit (total protein kit microTP test wako, FUJIFILM Wako Pure Chemical Corporation, pyrogallol red method), and urine creatinine concentration was measured using a creatinine test kit (LabAssay™ creatinine, FUJIFILM Wako Pure Chemical Corporation, Jaffe method), and the ratio of urine protein to creatinine was calculated for each individual. […] For the difference between the Normal group and the Vehicle group, the Wilcoxon test (non-parametric, comparison between two groups) was performed, and for the difference between the Vehicle group and the test substance administration group, the analysis was performed by the Shirley-Williams test (non-parametric, multiple comparison with dose response).

mouse acute GVHD model = experiment: Mouse acute GVHD model, IFN-γ concentration in plasma; type: in vivo, mouse (BDF1 host, C57BL/6N donor); conditions: for effective dose, suppression of IFN-γ in plasma: oral, twice daily from Day 0, plasma on Day 7, significant relative to the Vehicle group
Experimental: FIG. 2 is a graph showing the effect of the compound of Example 89 in mouse acute GVHD models. The compound of Example 89 was orally administered at 1.5, 5, 15, or 50 mg/kg, BID. The vertical axis is the concentration of interferon gamma (sometimes abbreviated herein as IFN-γ or IFN-g) in blood on day 7 after elicitation in the model.
Effect of Test Substance in Mouse Acute GVHD Model
A mouse acute graft-versus-host disease (GVHD) model was generated in accordance with a previous report (Puliaev R et al. Differential requirement for IFN-gamma in CTL maturation in acute murine graft-versus-host disease. J Immunol. 173, 910-9 (2004)). Splenocytes were prepared from euthanized donor mice (C57BL/6N), suspended in PBS without hemolysis of erythrocytes, and administered to host mice, BDF1 mice, from the tail vein (the number of transfer cells was adjusted to be 7 to 8×10^7 cells/0.2 mL/mouse in every test, and matched between individuals within the same test). In the Normal group, 0.2 mL of PBS was administered in place of the cells. The test substance was crushed in an agate mortar, and then suspended in a 0.5% hydroxypropyl cellulose (HPC) solution to prepare a dosage solution. In the Vehicle group, 0.5% HPC was used as a dosage solution. To the host mice, the dosage solution was forcibly orally administered (0.2 mL/mouse) twice daily with a feeding needle from the morning of Day 0 (cell transfer) to the end of the experiment. The tail vein was cut without anesthesia on Day 7 and a small amount of blood was collected with a hematocrit tube (EDTA). Plasma was collected by centrifugation and IFN-γ concentration in plasma was measured with an αLISA kit (Mouse IFN-γ alphaLISA, PerkinElimer, AL501C). […] For the difference between the Normal group and the Vehicle group, comparison between two groups was performed by Student's t-test. The difference between the Vehicle group and the test substance administration group was analyzed by a parametric multiple-comparison test, Dunnett test.

Row | SMILES | IC50 [1] | also measured
1 | N[C@@H](Cc1cccc(S(=O)(=O)N2CC(Oc3ccc(Br)cc3)(c3ccccc3)C2)c1)C(=O)O [Example 19] | 3 nM | –
2 | N#Cc1cccc(OC2(c3ccccc3)CN(S(=O)(=O)c3cccc(C[C@H](N)C(=O)O)c3)C2)c1 [Example 20] | 3 nM | –
3 | N[C@@H](Cc1cccc(S(=O)(=O)N2CC(Oc3cccc(C(F)(F)F)c3)(c3ccccc3)C2)c1)C(=O)O [Example 21] | 2.5 nM | –
4 | N[C@@H](Cc1cccc(S(=O)(=O)N2CC(Oc3cccnc3)(c3ccccc3)C2)c1)C(=O)O [Example 22] | 8.7 nM | –
5 | N[C@@H](Cc1cccc(S(=O)(=O)N2CC(Oc3ccncc3)(c3ccccc3)C2)c1)C(=O)O [Example 23] | 16 nM | –
6 | N[C@@H](Cc1cccc(S(=O)(=O)N2CC(Oc3ccccc3)(c3ccccc3)C2)c1)C(=O)O [Example 24] | 0.49 nM | –
7 | CC(C)(C)CC1(Oc2ccccc2)CN(S(=O)(=O)c2cccc(C[C@H](N)C(=O)O)c2)C1 [Example 25] | 92 nM | –
8 | N[C@@H](Cc1cccc(S(=O)(=O)N2CC(Oc3ccccc3)(c3cccc(F)c3)C2)c1)C(=O)O [Example 26] | 2.5 nM | –
9 | N[C@@H](Cc1cccc(S(=O)(=O)N2CC(Oc3ccccc3)(c3ccccc3F)C2)c1)C(=O)O [Example 27] | 2.9 nM | –
10 | [2H]c1c([2H])c([2H])c(C2(Oc3cccc(F)c3)CN(S(=O)(=O)c3cccc(C[C@H](N)C(=O)O)c3)C2)c([2H])c1[2H] [Example 28] | 2.3 nM | –
11 | N[C@@H](Cc1cccc(S(=O)(=O)N2CC(Oc3ccccc3)(C(F)(F)F)C2)c1)C(=O)O [Example 29] | 180 nM | –
12 | CC1(Oc2ccccc2)CN(S(=O)(=O)c2cccc(C[C@H](N)C(=O)O)c2)C1 [Example 30] | 1100 nM | –
13 | N[C@@H](Cc1cccc(S(=O)(=O)N2CC(Oc3ccccc3)(C3CC3)C2)c1)C(=O)O [Example 31] | 210 nM | –
14 | N[C@@H](Cc1cccc(S(=O)(=O)N2CC(Oc3ccccc3)(c3nccs3)C2)c1)C(=O)O [Example 32] | 11 nM | –
15 | N[C@@H](Cc1cccc(S(=O)(=O)N2CC(Oc3ccccc3)(c3ccccn3)C2)c1)C(=O)O [Example 33] | 7.8 nM | –
16 | N[C@@H](Cc1cccc(S(=O)(=O)N2CC(Oc3ccccc3F)(c3ccccn3)C2)c1)C(=O)O [Example 34] | 19 nM | –
17 | N[C@@H](Cc1cccc(S(=O)(=O)N2CC(Oc3cccc(F)c3)(c3ccccn3)C2)c1)C(=O)O [Example 35] | 17 nM | –
18 | N[C@@H](Cc1cccc(S(=O)(=O)N2CC(c3ccccc3-c3ccccc3)C2)c1)C(=O)O [Example 36] | 78 nM | –
19 | Cc1ccccc1-c1ccccc1C1CN(S(=O)(=O)c2cccc(C[C@H](N)C(=O)O)c2)C1 [Example 37] | 85 nM | –
20 | N[C@@H](Cc1cccc(S(=O)(=O)N2CC(Oc3ccccc3-c3ccccc3Cl)C2)c1)C(=O)O [Example 38] | 34 nM | –
21 | N[C@@H](Cc1cccc(S(=O)(=O)N2CC(OC3CC3)(c3ccccc3)C2)c1)C(=O)O [Example 39] | 140 nM | –
22 | N#Cc1ccc(OC2(c3ccccc3)CN(S(=O)(=O)c3cccc(C[C@H](N)C(=O)O)c3)C2)cc1 [Example 40] | 2.2 nM | –
23 | N[C@@H](Cc1cccc(S(=O)(=O)N2CC(Oc3ccc(F)cc3)(c3ccccn3)C2)c1)C(=O)O [Example 43] | 8.6 nM | –
24 | CC(=O)O[C@@H](C)OC(=O)N[C@@H](Cc1cccc(S(=O)(=O)N2CC(Oc3cccc(F)c3)(c3ccccc3)C2)c1)C(=O)O [Example 89, (S)-2-((((R)-1-Acetoxyethoxy)carbonyl)amino)-3-(3-((3-(3-fluorophenoxy)-3-phenylazetidin-1-yl)sulfonyl)phenyl)propanoic acid] | – | effect on urine protein/creatinine ratio (mouse chronic GVH model; oral 1.5, 5, 15, or 50 mg/kg BID, Day 32): suppressed the urine protein/creatinine ratio in a dose-dependent manner; minimum effective dose / effective dose, urine protein/creatinine ratio (mouse chronic GVH model): 15 mg/kg, BID; effect on IFN-γ in plasma (mouse acute GVHD model; oral 1.5, 5, 15, or 50 mg/kg BID, Day 7): inhibited IFN-γ in plasma in a dose-dependent manner; effective dose, suppression of IFN-γ in plasma (mouse acute GVHD model): ≥ 1.5 mg/kg, BID
25 | C[C@H](OC(=O)N[C@@H](Cc1cccc(S(=O)(=O)N2CC(Oc3cccc(F)c3)(c3ccccc3)C2)c1)C(=O)O)OC(=O)C(C)(C)C [Example 97] | – | minimum effective dose / effective dose, urine protein/creatinine ratio (mouse chronic GVH model): 15 mg/kg, BID
26 | CC(C)C(=O)O[C@@H](C)OC(=O)N[C@@H](Cc1cccc(S(=O)(=O)N2CC(Oc3ccc(F)cc3)(c3ccccc3)C2)c1)C(=O)O [Example 104, (S)-3-(3-((3-(4-Fluorophenoxy)-3-phenylazetidin-1-yl)sulfonyl)phenyl)-2-((((R)-1-(isobutyryloxy)ethoxy)carbonyl)amino)propanoic acid] | – | minimum effective dose / effective dose, urine protein/creatinine ratio (mouse chronic GVH model): 15 mg/kg, BID; effective dose, suppression of IFN-γ in plasma (mouse acute GVHD model): ≥ 15 mg/kg, BID
